From patent US20240009191A1, “METHOD AND COMPOSITION FOR THE TREATMENT OF DISEASE” (DIMERIX BIOSCIENCE PTY LTD, priority 2019, published 2024)

Legend:
Assay type in all cases: cell-based
AT1R-CXCR2 heteromer [1] = molecular target: T1, AT1R-CXCR2 heteromer (Homo sapiens, UniProt P25025+P30556); test: BRET trafficking of CXCR2/Rluc8 (Venus/Kras, Rab5, Rab8) with HA-AT1R, pre-treatment with vehicle or antagonists/inverse agonists; settings: 50 minutes after pre-treatment (10 μM); for effect of both CXCL8 and AngII combined on CXCR2/Rluc8-Venus/Kras BRET / effect of both CXCL8 and AngII combined on CXCR2/Rluc8-Venus/Rab5 BRET / effect of both CXCL8 and AngII combined on CXCR2/Rluc8-Venus/Rab8 BRET: 10 nM CXCL8 and 100 nM AngII; for effect of both CXCL8 and AngII combined on CXCR2/Rluc8-Venus/Kras BRET: FIG. 16C, 16E-16H; for effect of both CXCL8 and AngII combined on CXCR2/Rluc8-Venus/Rab5 BRET: FIG. 17C, 17E-17H; for effect of both CXCL8 and AngII combined on CXCR2/Rluc8-Venus/Rab8 BRET: FIG. 18C, 18E-18H; for effect of AngII on CXCR2/Rluc8-Venus/Kras BRET / effect of AngII on CXCR2/Rluc8-Venus/Rab5 BRET / effect of AngII on CXCR2/Rluc8-Venus/Rab8 BRET: 100 nM AngII only; for effect of AngII on CXCR2/Rluc8-Venus/Kras BRET: FIG. 16B, 16D; for effect of AngII on CXCR2/Rluc8-Venus/Rab5 BRET: FIG. 17B, 17D; for effect of AngII on CXCR2/Rluc8-Venus/Rab8 BRET: FIG. 18B, 18D
T1 sequence (P25025 1-360): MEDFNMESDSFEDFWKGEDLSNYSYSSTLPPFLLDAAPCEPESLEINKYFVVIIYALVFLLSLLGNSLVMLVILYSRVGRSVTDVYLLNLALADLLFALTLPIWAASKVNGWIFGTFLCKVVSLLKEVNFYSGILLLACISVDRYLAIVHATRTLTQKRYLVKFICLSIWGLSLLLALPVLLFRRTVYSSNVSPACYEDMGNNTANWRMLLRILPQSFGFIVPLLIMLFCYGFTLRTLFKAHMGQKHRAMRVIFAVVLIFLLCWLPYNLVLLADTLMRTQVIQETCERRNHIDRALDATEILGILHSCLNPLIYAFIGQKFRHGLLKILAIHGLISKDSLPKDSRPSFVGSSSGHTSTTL
T1 sequence (P30556 1-359): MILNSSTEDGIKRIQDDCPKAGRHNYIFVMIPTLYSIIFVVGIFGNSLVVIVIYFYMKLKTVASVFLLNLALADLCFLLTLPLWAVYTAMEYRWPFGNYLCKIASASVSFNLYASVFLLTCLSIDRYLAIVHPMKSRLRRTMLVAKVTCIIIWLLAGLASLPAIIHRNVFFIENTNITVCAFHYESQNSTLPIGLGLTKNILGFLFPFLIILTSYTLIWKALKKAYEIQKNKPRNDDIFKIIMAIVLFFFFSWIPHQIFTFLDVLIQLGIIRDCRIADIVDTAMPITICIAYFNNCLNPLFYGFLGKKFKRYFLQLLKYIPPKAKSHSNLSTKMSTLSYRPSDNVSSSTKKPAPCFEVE
Description: (§1) HEK293FT cells were seeded in 6-well plates at a density of approximately 700,000 cells/well and maintained at 37° C., 5% CO2 in Complete Media (DMEM containing 0.3 mg/ml glutamine, 100 IU/ml penicillin and 100 μg/ml streptomycin (Gibco/Thermo Fisher)) supplemented with 10% fetal calf serum (FCS; Bovogen). Transient transfections were carried out 24 h after seeding using FuGene6™ (Promega) according to manufacturer instructions. 24 h post-transfection, cells were washed with PBS, detached using 0.05% trypsin/0.53 mM EDTA, resuspended in HEPES-buffered phenol red free Complete Media containing 5% FCS and added to a poly-L-lysine-coated white 96-well microplate (Greiner Bio-One). 48 h post-transfection, bioluminescence resonance energy transfer (BRET) assays were carried out following pre-incubation of cells with EnduRen™ (Promega) at a final concentration of 30 μM, at 37° C., 5% CO2 for 2 h. BRET measurements were taken at 37° C. using the LUMlstar™ or CLARIOstar™ (BMG Labtech).
(§2) For antagonist/inverse agonist assays, cells were pre-incubated with EnduRen for 1.5 hours, followed by the addition of vehicle or antagonists/inverse agonists (10 μM) for another 30 minutes.
(§3) The BRET signal observed between interacting proteins is normalized by subtracting the background BRET ratio. […] In the following examples, the second calculation will be used and the signal is described as ligand-induced BRET′. Furthermore, for data shown in FIGS. 4 to 20, all data points in a given set are corrected relative to the final data point prior to agonist treatment, which is fixed to zero. In keys on FIGS. 7 to 20, “>” means “followed by after 50 minutes”, with agonists added at time zero on the x-axes.
(§4) Prior to agonist treatment (added at 0 minutes), a baseline BRET signal was recorded for each of the combinations for 20 minutes. Data were calculated as ligand-induced BRET relative to the ‘vehicle followed by vehicle’ (veh>veh) data set.

AT1R-CXCR2 heteromer [2] = molecular target: T2, AT1R-CXCR2 heteromer (Homo sapiens, UniProt P25025+P30556); test: BRET trafficking of AT1R/Rluc8 (Venus/Kras, Rab5) with unlabelled CXCR2, pre-treatment with vehicle or antagonists/inverse agonists; settings: 50 minutes after pre-treatment (10 μM); for effect of both CXCL8 and AngII combined on AT1R/Rluc8-Venus/Kras BRET / effect of both CXCL8 and AngII combined on AT1R/Rluc8-Venus/Rab5 BRET: 10 nM CXCL8 and 100 nM AngII; for effect of both CXCL8 and AngII combined on AT1R/Rluc8-Venus/Kras BRET: FIG. 19B-19F; for effect of both CXCL8 and AngII combined on AT1R/Rluc8-Venus/Rab5 BRET: FIG. 20B-20F; for effect of AngII on AT1R/Rluc8-Venus/Kras BRET / effect of AngII on AT1R/Rluc8-Venus/Rab5 BRET: 100 nM AngII only; for effect of AngII on AT1R/Rluc8-Venus/Kras BRET: FIG. 19A; for effect of AngII on AT1R/Rluc8-Venus/Rab5 BRET: FIG. 20A
T2 sequence (P30556 1-359): T1 sequence (P30556 1-359)
T2 sequence (P25025 1-360): T1 sequence (P25025 1-360)
Description: as §1, §2, §3, §4

AT1R-CXCR2 heteromer [3] = molecular target: T1, AT1R-CXCR2 heteromer; test: BRET Gi coupling, CXCR2/Rluc8, Venus/mGsi and HA-AT1R, pre-treatment with antagonists/inverse agonists; settings: FIGS. 6-15; for effect of CXCL8 only on CXCR2/Rluc8-Venus/mGsi BRET: 10 nM CXCL8, 50 minutes after pre-treatment with antagonists/inverse agonists (10 μM); for effect of CXCL8 and AngII combined on CXCR2/Rluc8-Venus/mGsi BRET: 10 nM CXCL8 and 100 nM AngII; for effect of CXCL8 and AngII combined on CXCR2/Rluc8-Venus/mGsi BRET / effect of AngII only on CXCR2/Rluc8-Venus/mGsi BRET: 50 minutes after pre-treatment with antagonists/inverse agonists (10 μM); for effect of AngII only on CXCR2/Rluc8-Venus/mGsi BRET: 100 nM AngII
Description: as §1, §2, §3, §4

| SMILES | effect of both CXCL8 and AngII combined on CXCR2/Rluc8-Venus/Kras BRET (AT1R-CXCR2 heteromer [1]) | effect of both CXCL8 and AngII combined on CXCR2/Rluc8-Venus/Rab5 BRET (AT1R-CXCR2 heteromer [1]) | effect of both CXCL8 and AngII combined on CXCR2/Rluc8-Venus/Rab8 BRET (AT1R-CXCR2 heteromer [1]) | effect of AngII on CXCR2/Rluc8-Venus/Kras BRET (AT1R-CXCR2 heteromer [1]) | effect of AngII on CXCR2/Rluc8-Venus/Rab5 BRET (AT1R-CXCR2 heteromer [1]) | effect of AngII on CXCR2/Rluc8-Venus/Rab8 BRET (AT1R-CXCR2 heteromer [1]) | effect of both CXCL8 and AngII combined on AT1R/Rluc8-Venus/Kras BRET (AT1R-CXCR2 heteromer [2]) | effect of both CXCL8 and AngII combined on AT1R/Rluc8-Venus/Rab5 BRET (AT1R-CXCR2 heteromer [2]) | effect of CXCL8 only on CXCR2/Rluc8-Venus/mGsi BRET (AT1R-CXCR2 heteromer [3]) | effect of CXCL8 and AngII combined on CXCR2/Rluc8-Venus/mGsi BRET (AT1R-CXCR2 heteromer [3]) | effect of AngII only on CXCR2/Rluc8-Venus/mGsi BRET (AT1R-CXCR2 heteromer [3]) | effect of AngII on AT1R/Rluc8-Venus/Kras BRET (AT1R-CXCR2 heteromer [2]) | effect of AngII on AT1R/Rluc8-Venus/Rab5 BRET (AT1R-CXCR2 heteromer [2]) |
| --- | --- | --- | --- | --- | --- | --- | --- | --- | --- | --- | --- | --- | --- |
| O=C(Nc1ccc([N+](=O)[O-])cc1O)Nc1ccccc1Br [SB225002] | indistinguishable from the effect observed with AngII only | appears to inhibit the effect of AngII as well as that of CXCL8 | indistinguishable from the effect observed with AngII only | did not alter | did appear to inhibit | did not alter | indistinguishable from the effect observed with AngII only | indistinguishable from the effect observed with AngII only | completely inhibited | indistinguishable from that observed with AngII only | not being altered | – | – |
| CCOc1nc2cccc(C(=O)O)c2n1Cc1ccc(-c2ccccc2-c2nc(=O)o[nH]2)cc1 [azilsartan] | indistinguishable from the effect observed with CXCL8 only | indistinguishable from the effect observed with CXCL8 only | completely inhibited | completely inhibited | completely inhibited | completely inhibited | completely inhibited | completely inhibited | not being altered | indistinguishable from that observed with CXCL8 only | completely inhibited | completely inhibited | completely inhibited |
| CCOc1nc2cccc(C(=O)O)c2n1Cc1ccc(-c2ccccc2-c2nnn[nH]2)cc1 [candesartan] | – | – | – | – | – | – | – | – | not being altered | indistinguishable from that observed with CXCL8 only | completely inhibited | – | – |
| Cc1c(F)cccc1NC(=O)Nc1ccc(Cl)c(S(=O)(=O)[C@H]2CCCNC2)c1O [danirixin] | – | – | – | – | – | – | indistinguishable from the effect observed with AngII only | indistinguishable from the effect observed with AngII only | completely inhibited | indistinguishable from that observed with AngII only | not being altered | – | – |
| CCCCc1ncc(/C=C(\Cc2cccs2)C(=O)O)n1Cc1ccc(C(=O)O)cc1 [eprosartan] | – | – | – | – | – | – | – | – | not being altered | indistinguishable from that observed with CXCL8 only | completely inhibited | – | – |
| CCCCC1=NC2(CCCC2)C(=O)N1Cc1ccc(-c2ccccc2-c2nnn[nH]2)cc1 [irbesartan] | indistinguishable from the effect observed with CXCL8 only | indistinguishable from the effect observed with CXCL8 only | completely inhibited | completely inhibited | completely inhibited | completely inhibited | completely inhibited | completely inhibited | not being altered | indistinguishable from that observed with CXCL8 only | completely inhibited | completely inhibited | completely inhibited |
| CCCCc1nc(Cl)c(CO)n1Cc1ccc(-c2ccccc2-c2nn[nH]n2)cc1 [losartan] | – | – | – | – | – | – | – | – | not being altered | indistinguishable from that observed with CXCL8 only | completely inhibited | – | – |
| CC[C@@H](Nc1c(Nc2cccc(C(=O)N(C)C)c2O)c(=O)c1=O)c1ccc(C)o1 [navarixin] | indistinguishable from the effect observed with AngII only | indistinguishable from the effect observed with AngII only | indistinguishable from the effect observed with AngII only | did not alter | did not alter | did not alter | indistinguishable from the effect observed with AngII only | indistinguishable from the effect observed with AngII only | completely inhibited | indistinguishable from that observed with AngII only | not being altered | – | – |
| CCCc1nc2c(C)cc(-c3nc4ccccc4n3C)cc2n1Cc1ccc(-c2ccccc2C(=O)O)cc1 [telmisartan] | – | – | – | – | – | – | – | – | not being altered | indistinguishable from that observed with CXCL8 only | completely inhibited | – | – |
